Values quoted from earlier work in patent US20170216439A1, “OTIC FORMULATIONS FOR THE TREATMENT OF CERUMINOSIS” (Otonomy, Inc., priority 2014, published 2017).

Assays:
[1] = for efficacy against tinnitus: in vivo
bacterial lesions = conditions: wild-type C57BL/6 and mutant flake mice

For `CCN(CC)CC(=O)Nc1c(C)cccc1C` [Lidocaine], the “reduces or eliminates the noise associated with tinnitus, share of sufferers” value ([1]; administered by IV) is given as 60-80%.
For `CNCCC=C1c2ccccc2CCc2ccccc21` [nortriptyline], the efficacy against tinnitus [1] is listed as “demonstrated efficacy”.
For `CCCCCCCC/C=C\CCCCCCCC(=O)O` [oleic acid], the “inhibitory against S. aureus” value (S. aureus) is given as “inhibitory” and the “inhibitory against S. pyogenes” value (S. pyogenes) is given as “inhibitory”.
For `CCCCCC/C=C\CCCCCCCC(=O)O` [palmitoleate], the “size of bacterial lesions” value (bacterial lesions) is listed as “decrease the size of bacterial lesions”.
In the case of `CCCCCC/C=C\CCCCCCCC(=O)O` [palmitoleic acid], the “inhibitory against S. aureus” value (S. aureus) is listed as “inhibitory” and the “inhibitory against S. pyogenes” value (S. pyogenes) is listed as “inhibitory”.
In the case of `Fc1ccc([C@@H]2CCNC[C@H]2COc2ccc3c(c2)OCO3)cc1` [paroxetine], the efficacy against tinnitus [1] is listed as “demonstrated efficacy”.
In the case of `CN[C@H]1CC[C@@H](c2ccc(Cl)c(Cl)c2)c2ccccc21` [sertraline], the efficacy against tinnitus [1] is listed as “demonstrated efficacy”.
